From publication PMC8021118, “Shared recognition of citrullinated tenascin-C peptides by T and B cells in rheumatoid arthritis” (JCI Insight, 2021)
Where two headings read alike, the source gives them in different places. Where a SMILES comes first, the peptide text is derived from it. Where no end group is shown, it is not given here. [ ]: non-standard residue; d: D form. Cit = NC(=O)NCCC[C@H](N)C(=O)O

How the values were obtained:
HLA-DRB1*04:01 = HLA-DRB1*04:01 (Homo sapiens, UniProt P01903+P01911, A100K/A169T/F76Y/I96L/K127E/L162R/M171V/N62H/P40V/Q125Y/R42H/S133A/S149N/S66Y/V115G/V209L/W38E); assay: Peptide competition binding assay to HLA-DRB1*04:01; settings: for Binding to HLA-DRB1*04:01 (in words): 15-mer T cell peptides, EC50 cutoff for measurable binding 50 μM
[1] = system: CD4+ T cells in PBMC from HLA-DRB1*04:01+ subjects; assay: In vitro expansion of peptide-specific CD4+ T cells from PBMC and HLA class II tetramer staining; format: cell-based, human; settings: for Responders (% in RA): RA subjects with positive in vitro response (>0.1% of CD4+ T cells tetramer+) of total tested, 10 μg/mL peptide, 14 days, n = 14, TNC44 and TNC59 n = 6; for Immunogenicity: Supplemental Table 1, ability to elicit an immune response in vitro (tetramer staining after expansion); for T cell responses in vitro (in words): noncitrullinated 15-mer versions
Description: TNC is a large protein (2110 amino acids in length) composed of an N-terminal assembly domain, 14.5 epidermal growth factor–like repeats (EGF-L), 8 constant fibronectin type III–like repeats (FNIII), and an additional 9 alternatively spliced FNIII elements, and a C-terminal fibrinogen-like globe (FBG) ([16]). Using a previously described algorithm ([9], [24]), we scanned the entire length of the TNC monomer and identified 64 arg-containing peptides with motifs that would predict to permit binding to HLA-DRB1*04:01 in either their noncitrullinated native form, citrullinated form, or both. Based on these predictions, we synthesized the citrullinated versions of these peptides and tested their ability to bind HLA-DRB1*04:01 and to elicit CD4^+ T cell expansion in vitro. Of the peptides synthesized, 8 cit-TNC peptides bound to HLA-DRB1*04:01 with moderate to high affinity (Table 1). Among these, cit-TNC17, cit-TNC22, cit-TNC45, cit-TNC50, and cit-TNC56 were determined to be the most immunogenic, based on their ability to drive epitope-specific T cell expansion, as measured by HLA class II tetramer (Tmr) staining of peripheral blood mononuclear cells (PBMC) from HLA-DRB1*04:01^+ subjects following 2 weeks of in vitro expansion (Table 1 and Supplemental Figure 1; supplemental material available online with this article; https://doi.org/10.1172/jci.insight.145217DS1).
Recombinant HLA-DRB1*04:01 protein was produced by the BRI Tetramer Core as previously described ([56]). Soluble HLA-DRB1*04:01 monomer was purified from insect cell culture supernatants and biotinylated at a sequence-specific site using biotin ligase (Avidity) prior to dialysis into phosphate storage buffer. The biotinylated monomer was loaded with 0.2 mg/mL of peptide by incubating at 37°C for 72 hours in the presence of 2.5 mg/mL n-octyl β-D-glucopyranoside and 1 mM Pefabloc SC (Sigma-Aldrich). Peptide-loaded monomers were conjugated into Tmrs using fluorescently labeled streptavidin (Invitrogen) for 6–18 hours at room temperature at a molar ratio of 8:1.
Cryopreserved PBMCs from RA and healthy subjects were cultured at 5 × 10^6 cells/well in a 48-well plate in RPMI-1640 + 10% HPS with 10 μg/mL of peptide. IL-2 (Novartis) was added at 325 IU/mL on day 6. On day 14, cells were stained for expression of Tmr-PE, CD25 APC (BD Biosciences), and CD4 FITC (BioLegend) (Supplemental Table 8) and then run on a FACSCanto. The data were analyzed by FlowJo software version 10.

[2] = Supplemental Table 1, citrullinated (X) vs arginine (R) versions, cutoff in the peptide binding assay 50 μM

Q: With `CC[C@H](C)[C@H](NC(=O)[C@H](CC(C)C)NC(=O)[C@H](CO)NC(=O)[C@@H](N)C(C)C)C(=O)N[C@@H](CO)C(=O)N[C@@H](CCCNC(N)=O)C(=O)N[C@@H](CCCNC(N)=O)C(=O)NCC(=O)N[C@@H](CC(=O)O)C(=O)N[C@@H](CCSC)C(=O)N[C@@H](CO)C(=O)N[C@@H](CO)C(=O)N[C@@H](CC(N)=O)C(=O)N1CCC[C@H]1C(=O)N[C@@H](C)C(=O)O` [TNC17] (H-VSLIS[Cit][Cit]GDMSSNPA-OH) as the compound, how does the EC50 (HLA-DRB1*04:01) read?
A: 3.6 µM

Q: Which results are given for `CC[C@H](C)[C@H](NC(=O)[C@H](CCC(=O)O)NC(=O)[C@H](C)NC(=O)[C@H](CCCNC(N)=O)NC(=O)[C@H](CC(C)C)NC(=O)[C@@H]1CCCN1C(=O)[C@H](CCCCN)NC(=O)[C@@H](N)[C@@H](C)O)C(=O)N[C@H](C(=O)N[C@H](C(=O)N[C@@H](CCC(=O)O)C(=O)N[C@@H](C)C(=O)N[C@@H](CCC(=O)O)C(=O)N1CCC[C@H]1C(=O)N[C@@H](CCC(=O)O)C(=O)O)[C@@H](C)O)C(C)C` [TNC44] (H-TKPL[Cit]AEIVTEAEPE-OH)?
A: EC50 (HLA-DRB1*04:01): 33.3 µM; Responders (% in RA) [1]: 33%

Q: Which results are given for `CC[C@H](C)[C@H](NC(=O)[C@H](C)NC(=O)[C@@H]1CCCN1C(=O)[C@H](CCC(N)=O)NC(=O)[C@H](Cc1c[nH]c2ccccc12)NC(=O)[C@H](CCCNC(N)=O)NC(=O)[C@H](C)NC(=O)[C@@H](N)CC(C)C)C(=O)N[C@@H](C)C(=O)N[C@H](C(=O)N[C@H](C(=O)N[C@@H](CC(=O)O)C(=O)N[C@@H](CO)C(=O)N[C@@H](Cc1ccc(O)cc1)C(=O)N[C@H](C(=O)O)C(C)C)C(C)C)[C@@H](C)O` [TNC52] (H-LA[Cit]WQPAIATVDSYV-OH)?
A: EC50 (HLA-DRB1*04:01): 28.8 µM; Responders (% in RA) [1]: 33%

Q: With `CC(C)C[C@H](NC(=O)[C@H](CCC(=O)O)NC(=O)[C@H](Cc1ccc(O)cc1)NC(=O)[C@H](CCC(N)=O)NC(=O)CNC(=O)[C@@H](N)CCC(N)=O)C(=O)N[C@@H](CCCNC(N)=O)C(=O)N[C@H](C(=O)N[C@@H](CC(=O)O)C(=O)N[C@@H](CC(C)C)C(=O)N[C@@H](CCCNC(N)=O)C(=O)N[C@@H](CC(=O)O)C(=O)N[C@@H](Cc1c[nH]cn1)C(=O)NCC(=O)N[C@@H](CCC(=O)O)C(=O)O)C(C)C` [TNC56] (H-QGQYEL[Cit]VDL[Cit]DHGE-OH) as the compound, how does the EC50 (HLA-DRB1*04:01) read?
A: 9 µM

Q: How did the EC50 (HLA-DRB1*04:01) turn out when `CSCC[C@H](NC(=O)[C@@H](N)CO)C(=O)N[C@@H](C)C(=O)N[C@@H](Cc1ccc(O)cc1)C(=O)N[C@@H](Cc1c[nH]cn1)C(=O)N[C@@H](CC(N)=O)C(=O)NCC(=O)N[C@@H](CCCNC(N)=O)C(=O)N[C@@H](CO)C(=O)N[C@@H](Cc1ccccc1)C(=O)N[C@@H](CO)C(=O)N[C@H](C(=O)N[C@@H](Cc1ccccc1)C(=O)N[C@@H](CC(=O)O)C(=O)N[C@@H](CCCCN)C(=O)O)[C@@H](C)O` [TNC59] (H-SMAYHNG[Cit]SFSTFDK-OH) was run?
A: 25 µM

Q: And the “Responders (% in RA)” value [1]?
A: 33%

Q: For `CC[C@H](C)[C@H](NC(=O)[C@H](CC(C)C)NC(=O)[C@H](CO)NC(=O)[C@@H](N)C(C)C)C(=O)N[C@@H](CO)C(=O)N[C@@H](CCCNC(=N)N)C(=O)N[C@@H](CCCNC(N)=O)C(=O)NCC(=O)N[C@@H](CC(=O)O)C(=O)N[C@@H](CCSC)C(=O)N[C@@H](CO)C(=O)N[C@@H](CO)C(=O)N[C@@H](CC(N)=O)C(=O)N1CCC[C@H]1C(=O)N[C@@H](C)C(=O)O` [TNC-17RX] (H-VSLISR[Cit]GDMSSNPA-OH), which EC50 (HLA-DRB1*04:01; [2]) is on record?
A: 4.7 µM

Q: `CC[C@H](C)[C@H](NC(=O)[C@H](CC(C)C)NC(=O)[C@H](CO)NC(=O)[C@@H](N)C(C)C)C(=O)N[C@@H](CO)C(=O)N[C@@H](CCCNC(N)=O)C(=O)N[C@@H](CCCNC(=N)N)C(=O)NCC(=O)N[C@@H](CC(=O)O)C(=O)N[C@@H](CCSC)C(=O)N[C@@H](CO)C(=O)N[C@@H](CO)C(=O)N[C@@H](CC(N)=O)C(=O)N1CCC[C@H]1C(=O)N[C@@H](C)C(=O)O` [TNC-17XR] (H-VSLIS[Cit]RGDMSSNPA-OH) was tested. Which EC50 (HLA-DRB1*04:01; [2]) did it give?
A: > 50 µM

Q: What does the source list for `CC(C)C[C@H](NC(=O)[C@H](CCCNC(N)=O)NC(=O)[C@H](Cc1ccc(O)cc1)NC(=O)[C@H](CCCNC(=N)N)NC(=O)[C@H](CC(=O)O)NC(=O)[C@@H](N)Cc1ccccc1)C(=O)N[C@@H](CC(N)=O)C(=O)N[C@@H](Cc1ccc(O)cc1)C(=O)N[C@@H](CO)C(=O)N[C@@H](CC(C)C)C(=O)N1CCC[C@H]1C(=O)N[C@H](C(=O)NCC(=O)N[C@@H](CCC(N)=O)C(=O)N[C@@H](Cc1c[nH]c2ccccc12)C(=O)O)[C@@H](C)O` [TNC-22RX] (H-FDRY[Cit]LNYSLPTGQW-OH)?
A: EC50 (HLA-DRB1*04:01; [2]): 0.9 µM; Immunogenicity [1]: Yes

Q: Which results are given for `CC(C)C[C@H](NC(=O)[C@H](CCCNC(=N)N)NC(=O)[C@H](Cc1ccc(O)cc1)NC(=O)[C@H](CCCNC(N)=O)NC(=O)[C@H](CC(=O)O)NC(=O)[C@@H](N)Cc1ccccc1)C(=O)N[C@@H](CC(N)=O)C(=O)N[C@@H](Cc1ccc(O)cc1)C(=O)N[C@@H](CO)C(=O)N[C@@H](CC(C)C)C(=O)N1CCC[C@H]1C(=O)N[C@H](C(=O)NCC(=O)N[C@@H](CCC(N)=O)C(=O)N[C@@H](Cc1c[nH]c2ccccc12)C(=O)O)[C@@H](C)O` [TNC-22XR] (H-FD[Cit]YRLNYSLPTGQW-OH)?
A: EC50 (HLA-DRB1*04:01; [2]): 0.6 µM; Immunogenicity [1]: Yes

Q: `CC(C)C[C@H](NC(=O)[C@H](CCC(=O)O)NC(=O)[C@H](Cc1ccc(O)cc1)NC(=O)[C@H](CCC(N)=O)NC(=O)CNC(=O)[C@@H](N)CCC(N)=O)C(=O)N[C@@H](CCCNC(=N)N)C(=O)N[C@H](C(=O)N[C@@H](CC(=O)O)C(=O)N[C@@H](CC(C)C)C(=O)N[C@@H](CCCNC(N)=O)C(=O)N[C@@H](CC(=O)O)C(=O)N[C@@H](Cc1c[nH]cn1)C(=O)NCC(=O)N[C@@H](CCC(=O)O)C(=O)O)C(C)C` [TNC-56RX] (H-QGQYELRVDL[Cit]DHGE-OH) was tested. Which EC50 (HLA-DRB1*04:01; [2]) did it give?
A: > 50 µM

Q: Which EC50 (HLA-DRB1*04:01; [2]) does the source give for `CC(C)C[C@H](NC(=O)[C@H](CCC(=O)O)NC(=O)[C@H](Cc1ccc(O)cc1)NC(=O)[C@H](CCC(N)=O)NC(=O)CNC(=O)[C@@H](N)CCC(N)=O)C(=O)N[C@@H](CCCNC(N)=O)C(=O)N[C@H](C(=O)N[C@@H](CC(=O)O)C(=O)N[C@@H](CC(C)C)C(=O)N[C@@H](CCCNC(=N)N)C(=O)N[C@@H](CC(=O)O)C(=O)N[C@@H](Cc1c[nH]cn1)C(=O)NCC(=O)N[C@@H](CCC(=O)O)C(=O)O)C(C)C` [TNC-56XR] (H-QGQYEL[Cit]VDLRDHGE-OH) here?
A: 8.7 µM

Q: Which “Binding to HLA-DRB1*04:01 (in words)” value (HLA-DRB1*04:01) does the source give for “CEYEVSLISRRGDMSSNPAC [arg-TNC17, Cys-flanked arginine TNC17 peptide used in ELISA]” here?
A: did not

Q: What does the source list for “CPTAQVESFRITYVPITGGC [arg-TNC50, Cys-flanked arginine TNC50 peptide used in ELISA]”?
A: Binding to HLA-DRB1*04:01 (in words) (HLA-DRB1*04:01): bound; T cell responses in vitro (in words) [1]: had the ability to elicit T cell responses in vitro

Q: With “CQGQYELRVDLRDHGETAFC [arg-TNC56, Cys-flanked arginine TNC56 peptide used in ELISA]” as the compound, how does the “Binding to HLA-DRB1*04:01 (in words)” value (HLA-DRB1*04:01) read?
A: did not

Q: Which “Binding to HLA-DRB1*04:01 (in words)” value (HLA-DRB1*04:01) does the source give for “CTPLAKFDRYRLNYSLPTGC [arg-TNC22, Cys-flanked arginine TNC22 peptide used in ELISA]” here?
A: bound

Q: And the “T cell responses in vitro (in words)” value [1]?
A: had the ability to elicit T cell responses in vitro

Q: With “CVSDATPDGFRLSWTADEGC [arg-TNC45, Cys-flanked arginine TNC45 peptide used in ELISA]” as the compound, how does the “Binding to HLA-DRB1*04:01 (in words)” value (HLA-DRB1*04:01) read?
A: bound

Q: What about the “T cell responses in vitro (in words)” value [1] of the same compound?
A: had the ability to elicit T cell responses in vitro

Q: How did the EC50 (HLA-DRB1*04:01; [2]) turn out when FDRYRLNYSLPTGQW [TNC-22RR] was run?
A: 1 µM

Q: And the Immunogenicity [1]?
A: Yes

Q: Which EC50 (HLA-DRB1*04:01; [2]) does the source give for H-QGQYELRVDLRDHGE-OH [TNC-56RR] here?
A: > 50 µM

Q: Which EC50 (HLA-DRB1*04:01; [2]) does the source give for H-VSLISRRGDMSSNPA-OH [TNC-17RR] here?
A: > 50 µM

Q: PDGFRLSWTADEGVF [TNC-45R] was tested. Which EC50 (HLA-DRB1*04:01; [2]) did it give?
A: 5.7 µM

Q: And the Immunogenicity [1]?
A: Yes

Q: What does the source list for VESFRITYVPITGGT [TNC-50R]?
A: EC50 (HLA-DRB1*04:01; [2]): 1 µM; Immunogenicity [1]: Yes
